Data reported in article PMC8591201, “Anti-Tumor Activity of AZD4547 Against NTRK1 Fusion Positive Cancer Cells Through Inhibition of NTRKs” (Frontiers in Oncology, 2021).

Tests used:
in vitro = assay: in vitro; parameters: CellTiter-Glo viability of parental Ba/F3 cells, counter-screen; conditions: mouse, parental ba/f3 cells; read-out: AZD4547 parental
Protocol: To obtain the GI50 value of a substance, cell viability was measured using MTT (G4000, Promega, USA) for KM12(Luc) cell and Cell titer glo (G7572, Promega, USA) for other cell lines. For adherent cells, cells were seeded at 5,000 cells/well in a 96-well plate and treated with a substance one day after cell seeding. For suspension cells, 10,000 cells/well were seeded and the substance was treated after 4 h stabilization of cells. The substance was treated at 10 points of 1:3 serial dilution (0–100 µmol/L) for 72 h. For MTT assay, 15 µL dye solution was added to each well and incubated 4 h at 37°C. 100 µL of solubilization solution was added and followed 1 hr incubation. Absorbance at 570 nm of each well was recorded using EnVision microplate reader (Perkin Elmer). For Cell titer glo assay, Cell titer glo reagent was treated in each well and measured the luminescence by EnVision microplate reader (Perkin Elmer). Viable cells in each well were normalized by using 0.5% DMSO-treated wells (100%). The inhibitor dose−response curve was fitted and GI50 values were calculated using Prism 7.0 software (GraphPad). All assays were performed in duplicate and the standard deviation (SD) was determined from two independent experiments. […] Cell viability after 72 h exposure to the indicated inhibitors, determined by using a cell titer glo assay in duplicate mode. […]

TRKA G667S = tested on: T1, TRKA G667S; assay: cells; parameters: species or system Ba/F3; CellTiter-Glo anti-proliferation of Ba/F3 cells transformed with ETV6-NTRK fusions; conditions: Mus musculus, BaF3, 72 h; read-out: AZD4547 GI50
T1 construct: ETV6 (1-336)-NTRK1 kinase domain (434-790) fusion expressed in Ba/F3
Protocol: (§1) To obtain the GI50 value of a substance, cell viability was measured using MTT (G4000, Promega, USA) for KM12(Luc) cell and Cell titer glo (G7572, Promega, USA) for other cell lines. For adherent cells, cells were seeded at 5,000 cells/well in a 96-well plate and treated with a substance one day after cell seeding. For suspension cells, 10,000 cells/well were seeded and the substance was treated after 4 h stabilization of cells. The substance was treated at 10 points of 1:3 serial dilution (0–100 µmol/L) for 72 h. For MTT assay, 15 µL dye solution was added to each well and incubated 4 h at 37°C. 100 µL of solubilization solution was added and followed 1 hr incubation. Absorbance at 570 nm of each well was recorded using EnVision microplate reader (Perkin Elmer). For Cell titer glo assay, Cell titer glo reagent was treated in each well and measured the luminescence by EnVision microplate reader (Perkin Elmer). Viable cells in each well were normalized by using 0.5% DMSO-treated wells (100%). The inhibitor dose−response curve was fitted and GI50 values were calculated using Prism 7.0 software (GraphPad). All assays were performed in duplicate and the standard deviation (SD) was determined from two independent experiments. To investigate the inhibitory activity of AZD4547 against clinically relevant TRK mutants which have resistance to the known TRK inhibitors ([8], [44]), we established Ba/F3 cell lines harboring the ETV6-NTRKs fusion genes (NTRK1, NTRK1G595R, NTRK1G667A, NTRK1G667C, NTRK1G667S and NTRK2) ( Supplementary Figure 2 ). The mutation status of each established cell line was confirmed by sequencing of its cDNA ( Supplementary Figure 2 ). The anti-proliferation activity of AZD4547 was then measured in each cell line ( Figure 2A and Table S2 ). […] However, AZD4547 has no inhibitory activity against Ba/F3 harboring clinically relevant TRKs mutants including TRKA G595R, TRKA G667S, TRKA G667C and TRKA G667A. We next evaluated if AZD4547 is capable of suppressing the phosphorylation of TRKA/B in Ba/F3 cell lines ( Figure 2B ). […] Also, phosphorylation of TRKA/B is almost completely abolished using 1 µM of AZD4547. […] (A) Summary of GI50s of AZD4547 against Ba/F3: TRKA mutants or TRKB. Cell viability after 72 h exposure to the indicated inhibitors, determined by using a cell titer glo assay in duplicate mode. Data was plotted as mean GI50 ± SD of two independent experiments. (B) AZD4547 inhibits phosphorylation of TRKA/B and PLC-gamma in Ba/F3 harboring TRKA and TRKB, respectively. […] Data are representative of three independent experiments.

TRKA G667C = tested on: T2, TRKA G667C; assay: cells; parameters: species or system Ba/F3; CellTiter-Glo anti-proliferation of Ba/F3 cells transformed with ETV6-NTRK fusions; conditions: Mus musculus, BaF3, 72 h; read-out: AZD4547 GI50
T2 construct: ETV6 (1-336)-NTRK1 kinase domain (434-790) fusion expressed in Ba/F3
Protocol: as §1

TRKA [1] = tested on: T3, TRKA; assay: cells; parameters: species or system Ba/F3; CellTiter-Glo anti-proliferation of Ba/F3 cells transformed with ETV6-NTRK fusions; conditions: Mus musculus, BaF3, 72 h; read-out: AZD4547 GI50
T3 construct: ETV6 (1-336)-NTRK1 kinase domain (434-790) fusion expressed in Ba/F3
Protocol: as §1

TRKB [2] = tested on: T4, TRKB; assay: cells; parameters: species or system Ba/F3; CellTiter-Glo anti-proliferation of Ba/F3 cells transformed with ETV6-NTRK fusions; conditions: Mus musculus, BaF3, 72 h; read-out: AZD4547 GI50
T4 construct: ETV6 (1-336)-NTRK2 kinase domain (455-822) fusion expressed in Ba/F3
Protocol: as §1

TRKA G595R = tested on: T5, TRKA G595R; assay: cells; parameters: species or system Ba/F3; CellTiter-Glo anti-proliferation of Ba/F3 cells transformed with ETV6-NTRK fusions; conditions: Mus musculus, BaF3, 72 h; read-out: AZD4547 GI50
T5 construct: ETV6 (1-336)-NTRK1 kinase domain (434-790) fusion expressed in Ba/F3
Protocol: as §1

TRKB [3] = target: T6, TRKB (Homo sapiens, UniProt Q16620); assay: radiometric biochemical kinase assay
T6 construct: gene NTRK2
T6 sequence (Q16620 32-822): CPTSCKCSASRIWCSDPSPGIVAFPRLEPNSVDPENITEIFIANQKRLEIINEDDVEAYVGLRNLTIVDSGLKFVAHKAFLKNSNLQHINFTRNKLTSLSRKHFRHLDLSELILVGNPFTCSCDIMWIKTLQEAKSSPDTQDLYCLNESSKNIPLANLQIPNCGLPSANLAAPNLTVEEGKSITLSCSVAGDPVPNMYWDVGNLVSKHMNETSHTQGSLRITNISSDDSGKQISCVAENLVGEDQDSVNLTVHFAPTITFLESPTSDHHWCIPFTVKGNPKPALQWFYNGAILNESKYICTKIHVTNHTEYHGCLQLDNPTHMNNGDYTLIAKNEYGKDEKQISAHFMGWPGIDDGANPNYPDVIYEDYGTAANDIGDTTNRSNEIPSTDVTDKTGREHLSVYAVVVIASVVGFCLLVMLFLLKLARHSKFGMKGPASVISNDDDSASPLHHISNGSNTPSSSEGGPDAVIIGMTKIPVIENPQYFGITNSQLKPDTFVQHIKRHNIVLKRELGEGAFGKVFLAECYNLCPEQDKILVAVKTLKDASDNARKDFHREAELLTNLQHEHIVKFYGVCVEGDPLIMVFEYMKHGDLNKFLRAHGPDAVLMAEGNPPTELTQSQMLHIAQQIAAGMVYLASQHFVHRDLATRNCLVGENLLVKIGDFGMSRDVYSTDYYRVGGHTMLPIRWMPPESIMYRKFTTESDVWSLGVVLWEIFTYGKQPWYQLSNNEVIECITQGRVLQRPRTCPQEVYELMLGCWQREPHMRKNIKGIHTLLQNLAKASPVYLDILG

TRKA [4] = target: T7, TRKA (Homo sapiens, UniProt P04629); assay: radiometric biochemical kinase assay
T7 construct: gene NTRK1
T7 sequence (P04629 33-796): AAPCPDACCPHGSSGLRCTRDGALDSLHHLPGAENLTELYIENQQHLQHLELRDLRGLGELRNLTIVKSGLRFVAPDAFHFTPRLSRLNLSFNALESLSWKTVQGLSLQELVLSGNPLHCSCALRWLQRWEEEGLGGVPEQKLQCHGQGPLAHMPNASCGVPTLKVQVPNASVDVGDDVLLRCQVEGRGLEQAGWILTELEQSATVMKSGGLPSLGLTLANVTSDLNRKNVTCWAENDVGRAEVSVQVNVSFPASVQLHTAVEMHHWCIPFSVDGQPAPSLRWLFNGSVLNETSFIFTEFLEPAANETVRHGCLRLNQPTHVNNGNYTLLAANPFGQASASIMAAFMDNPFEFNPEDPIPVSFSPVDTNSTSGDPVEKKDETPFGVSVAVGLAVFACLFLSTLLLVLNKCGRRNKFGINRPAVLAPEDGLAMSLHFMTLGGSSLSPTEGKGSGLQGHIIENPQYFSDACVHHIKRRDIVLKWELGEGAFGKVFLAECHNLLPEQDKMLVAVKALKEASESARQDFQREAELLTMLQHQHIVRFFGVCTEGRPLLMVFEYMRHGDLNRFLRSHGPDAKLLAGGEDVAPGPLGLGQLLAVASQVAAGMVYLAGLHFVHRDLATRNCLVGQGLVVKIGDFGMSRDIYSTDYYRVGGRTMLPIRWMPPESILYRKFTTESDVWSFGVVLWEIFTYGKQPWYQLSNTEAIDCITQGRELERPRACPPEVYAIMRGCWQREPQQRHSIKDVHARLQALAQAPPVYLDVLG

For `COc1cc(CCc2cc(NC(=O)c3ccc(N4C[C@@H](C)N[C@@H](C)C4)cc3)n[nH]2)cc(OC)c1` [AZD4547], the CC50 at 72 h (in vitro) was > 2000 nM, the GI50 (TRKA G667S) was > 2000 nM and the GI50 (TRKA G667C) was > 2000 nM. The GI50 (TRKA [1]) was 66 ± 11.5 nM, the GI50 (TRKB [2]) was 104 ± 6.1 nM and the GI50 (TRKA G595R) was > 2000 nM. It also gave an IC50 (TRKB [3]) of 7.6 nM and an IC50 (TRKA [4]) of 8.8 nM.
